The series is described as follows: Hygroscopic property (preservation stability) at 23° C., ambient pressure, humidity 70%. It is filed as physicochemical. As to conditions: humidity of 70%. The source says: Hereinafter, the preservation stability (hygroscopic property) of the crystal of oxidized glutathione according to the present invention will be described in detail with reference to Test Example.

The values that follow come from US9243029B2, “Crystalline oxidized glutathione and production method therefor” (Kyowa Hakko Bio Co., Ltd., priority 2010, dated 2016).

Consider “oxidized glutathione [Reference Example 1]”, for which the “Hygroscopic property (moisture absorption / change in water content)” value is recorded as “markedly absorbed moisture” and the Time until deliquesced is listed as 2 days.
